Patent publication US10092595B2, “Compositions and methods for treating inflammatory arthritis” (priority 2009, dated 2018)
Entries after “also recorded” stand apart in the source; their conditions may differ. Square brackets hold non-standard residues; d marks the D form. Peptide text beside a SMILES is read from it. * marks the point of attachment. Nva = CCC[C@H](N)C(=O)O; Cbz = O=C(OCc1ccccc1)*; CH2F = FC*

Key:
gp130 [1] = test: Western blot of gp130 expression in MH7A cells; type: cell-based; conditions: for effect of pre-incubation with inhibitor on As2O3-induced decrease in gp130: NH4Cl 2.5 mM, MG115 10 μM, Z-VAD-FMK 25 μM, As2O3 5 μM
Protocol: (§1) Western blot analysis was performed (Pang et al., Gastroenterology, 132:1088-103 (2007)). Cell lysis and protein collection was conducted according to standard protocols. Protein samples (typically 30 μg) were separated by sodium dodecyl sulfate-polyacrylamide gel electrophoresis (SDS-PAGE) in 12% resolving gel and electro-transferred to nitrocellulose membranes (400 mA for 2 hours). After blocking with tris-buffered saline-TWEEN (TBS-T) containing 5% non-fat milk at room temperature for 30 minutes, membranes were incubated with the primary antibody and TBS-T with 5% bovine serum albumin at 4° C. overnight. The membranes were then washed thrice with TBS-T, and incubated for 1 hour at room temperature with 1:2000 horseradish peroxidase-conjugated secondary antibodies (Amersham-Pharmacia Biotechnology, Piscataway, N.J., USA). Immunoreactive bands were detected with chemiluminescence using the SuperSignal West Pico Chemiluminescent Substrate (Pierce Chemical Co., Rockford, Ill., USA), and visualized on X-ray films. Densitometric quantification of band signals was performed using ImageJ 1.36b software (National Institutes of Health, USA). All experiments were performed in triplicates.

JNK = test: Western blot of JNK phosphorylation in MH7A cells; type: cell-based
Protocol: as §1

IL-6 receptor α = test: Western blot of IL-6 receptor α expression in MH7A cells; type: cell-based
Protocol: as §1

GP130 gene = test: RT-PCR and Q-PCR of gp130 gene transcription in MH7A cells; type: cell-based
Protocol: (§2) Total RNA was prepared using TRIzol (Invitrogen). Reverse transcription PCR (RT-PCR) was performed (Cheung, et al., Cancer Lett., 246:122-8 (2007)). RNA was reverse transcribed with the Superscript™ III First-Strand Synthesis System (Invitrogen) according to the manufacturer's instructions. Reaction mixes contained 1.2 μL of cDNA, 18 μL of Platinum® PCR Supermix (Invitrogen) and 200 nM of each pair of primers.
Quantitative-RT-PCR (Q-PCR) for GP130 was performed with the Assays-on-Demand™ Gene Expression System (AssayID: Hs00174360_m1, PE Biosystems, Foster City, Calif., USA) according to the manufacturer's instructions. The reaction mix contained 2 μL of cDNA, 10 μL of TaqMan® Universal PCR Master Mix, 1 μL of Assay-on-Demand™ Gene Expression Assay Mix, and RNase-free water to a volume of 20 μL. Q-PCR was performed with the ABI Prism 7700 Sequence Detector (PE Biosystems). […] Real-time PCR amplification data were collected continuously and analyzed with the ABI Prism 7700 Sequence Detector. Relative gene expression to the control calibrator, and normalized to the internal control, was calculated by the ΔΔCT method (ABI user bulletin number 2, PE Biosystem) (Cheung, et al., Cancer Lett., 246:122-8 (2007)). […]

p53 = test: Western blot of p53 phosphorylation at serine 46 in MH7A cells; type: cell-based; conditions: 5 μM As2O3
[2] = oral As2O3; cited from earlier work
caspase 3 = test: Western blot of caspase 3 activation in MH7A cells; type: cell-based
Protocol: as §1

MH7A cells [3] = system: MH7A cells
Protocol: Cells were maintained in RPMI1640 (Invitrogen, Carlsbad, Calif., USA) supplemented with 10% heat inactivated fetal bovine serum (FBS; Invitrogen) in 5% CO2 at 37° C.
Cellular proliferation was assessed by an MTT assay (GE Healthcare, Piscataway, N.J., USA) (Cheung et al., Cancer Lett., 246:122-8 (2007)). Cells (2×10^4 cells/well in 96-well plates) were incubated overnight before treatment with controls or reagents for 2-6 days. The treated cells were then incubated with the MTT labeling solution (10 μL/well). After 4 hours of incubation, cells were lyzed, and formazan crystals solubilized overnight at 37° C. Formazean signal was detected at 570 nm (μ-Quant™ microplate spectrometer, Bio-Tek Instruments Inc., VT, USA). Data obtained were analyzed by the KC junior software (BLD Science, Garner, N.C., USA).

MH7A cells [4] = test: Cell cycle analysis by PI staining and flow cytometry; type: cell-based; conditions: 5 μM As2O3, 24 hours
Protocol: Cell cycle analysis was performed as described (Pang et al., J. Pathol. 210:19-25, (2006)), Cells were trypsinized, washed twice with ice-cold PBS, re-suspended in 500 μL PBS, and stained with PI for 10 minutes on ice (DNA Prep™, Beckman Coulter). Cell cycle was determined by flow cytometry, and data analyzed by the WinMDI 2.8 software.

gp130 [5] = test: Immunoprecipitation of gp130 and Western blot with anti-ubiquitin antibodies FK1 and FK2; type: cell-based; conditions: 100 μM As2O3, 0, 4 or 6 hours; FK2 positive, FK1 negative
Protocol: Immunoblot analysis was performed with gp130 ubiquitinylation. MH7A cells are incubated with 100 μM As2O3 for 0, 4 or 6 hours. Antibody to gp130 is used for immunoprecipitation (IP) of total cell lysates, followed by Western blot analysis with anti-ubiquitin antibodies FK1 and FK2. IP with non-immune rabbit serum (NIS) serves as control.
Immunoprecipitation was performed by standard procedures (Pang et al., Gastroenterology, 132:1088-103 (2007)). Cells were washed with ice-cold PBS supplemented with 1 mM sodium orthovanadate and Complete protease inhibitor cocktail (Complete; Roche Molecular Biochemicals), and lysed with buffer (50 mM Tris-HCl, pH: 7.5, 100 mM NaCl, 1% Triton X-100, 4 μg/mL aprotinin, 100 μM phenylmethylsulfonyl fluoride, 200 μM sodium orthovanadate, 2 μg/mL leupeptin, 1 mM ditheiothreitol, and 1× Complete) at 4° C. for 15 minutes. Lysates were collected and centrifuged. Proteins were assayed (Bio-Rad Protein Assay Kit, Philadelphia, Pa., USA), and adjusted to 1 μg/μL (typically 800 to 1000 μg). Immunoprecipitation was preformed by incubating protein samples with the appropriate antibodies (typically 4 μg) or control non-immune sera at 4° C. overnight with gentle shaking. […] The immunoprecipitates were then analyzed by Western blotting in triplicates

[6] = oral As2O3; cited from earlier work; remark: listed apart in the source
IL-6 receptor α gene = test: RT-PCR of IL-6 receptor α gene transcription in MH7A cells; type: cell-based; conditions: semi-quantitative RT-PCR
Protocol: as §2

MH7A cells [7] = test: Annexin V apoptosis assay (flow cytometry); type: cell-based; conditions: As2O3 5 μM, representative assay
Protocol: For apoptosis assay, 1×10^6 cells were incubated in 10-cm plates overnight, before treatment with controls or reagents for 24 hours. Cells were then trypsinized, washed twice with ice-cold phosphate buffered saline (PBS), re-suspended in 500 μL of binding buffer, and incubated on ice for 10 minutes with FITC-conjugated annexin-V and propidium iodide (PI) (Immunotech; Fullerton, Calif., USA). Apoptotic cells (annexin-V-positive, PI-negative) were enumerated by flow cytometry in triplicates (Epics, Beckman Coulter, Fullerton, Calif., USA) after appropriate color compensation. Data analysis was performed by the WinMDI 2.8 software (The Scripps Research Institute, La Jolla, Calif., USA).

IL-6 gene = test: RT-PCR of IL-6 gene transcription in MH7A cells; type: cell-based
Protocol: as §2

NFκB = test: Western blot of NFκB expression in MH7A cells; type: cell-based; conditions: dose (24 hours) and time (5 μM) dependence
Protocol: as §1

[8] = RA patients; cited from earlier work

CCC[C@@H](C=O)NC(=O)[C@H](CC(C)C)NC(=O)[C@H](CC(C)C)NC(=O)OCc1ccccc1 [MG115] (Cbz-Leu-Leu-[Nva]-aldehyde)
effect of pre-incubation with inhibitor on As2O3-induced decrease in gp130 (gp130 [1]): had no effect

Cl.N [NH4Cl, ammonium chloride]
effect of pre-incubation with inhibitor on As2O3-induced decrease in gp130 (gp130 [1]): significantly prevented
effect of inhibitor on As2O3-induced JNK phosphorylation/activation (JNK; SP600125 30 μM, NH4Cl 2.5 mM): almost totally abrogated

COC(=O)C[C@H](NC(=O)[C@H](C)NC(=O)[C@@H](NC(=O)OCc1ccccc1)C(C)C)C(=O)CF [Z-VAD-FMK] (Cbz-Val-Ala-Asp(OMe)-CH2F)
effect of pre-incubation with inhibitor on As2O3-induced decrease in gp130 (gp130 [1]): had no effect

Arsenic trioxide [As2O3]
IL-6 receptor α protein level (IL-6 receptor α): remaining unchanged
GP130 gene transcription (GP130 gene; real-time quantitative PCR, 5 μM As2O3, 0-24 hours): no effect on GP130 gene transcription
gp130 gene transcription (GP130 gene; semi-quantitative RT-PCR): no effect on the transcription of both genes
p53 phosphorylation at serine 46 (p53): significantly increased p53 phosphorylation at serine 46
gp130 protein level (gp130 [1]; Western blot): dose and time dependent decrease of gp130
JNK phosphorylation (JNK; 5 μM As2O3, 0-24 hours): significant increases in JNK phosphorylation
QT prolongation [2]: minimal QT prolongation
activation of caspase 3 (caspase 3): dose and time dependent activation of caspase 3
inhibition of growth of MH7A cells (MH7A cells [3]; increasing concentrations, 24, 48 or 72 hours): dose and time dependent inhibition of growth
IC50 (MH7A cells [3]; read-out: 50% inhibitory concentration, growth of MH7A cells, MTT assay, 24, 48 or 72 hours): ~5 µM
cell cycle arrest (MH7A cells [4]): significant G2M arrest
gp130 ubiquitination (gp130 [5]): induced mono-ubiquitination of gp130; also recorded: gp130 is mono-ubiquitinated
efficacy in relapsed acute promyelocytic leukemia [6]: highly efficacious
IL-6 receptor α gene transcription (IL-6 receptor α gene): no effect on the transcription of both genes
annexin-V positive, propidium iodide negative (apoptotic) cells (MH7A cells [7]): 38.2%
annexin-V positive, propidium iodide positive (dead) cells (MH7A cells [7]): 5.76%
IL-6 gene transcription (IL-6 gene): did not affect IL-6 gene transcription
level of NFκB (NFκB): significantly decreased the level of NFκB

IL-6: recombinant human IL-6 (Peprotech)
effect of exogenous IL-6 on proliferation of MH7A cells (MH7A cells [3]; 72 hours): did not increase the proliferation

infliximab
clinical effect in RA [8]: significant improvement in joint inflammation and halts the progression of joint damage

tocilizumab
clinical effect in RA [8]: significant control of symptoms
